Assay results taken from PubChem BioAssay (NCI).
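Tested at 5 concentrations; 48 h exposure; 96-well plates; endpoints linearly interpolated, else capped at highest concentration. The concentration for full growth arrest is given as TGI.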

Assays:
Experiment in all cases: growth of human tumour cells (NCI), 48 h
786-0 renal = test system: 786-0 renal
A498 renal = test system: A498 renal
A549 NSCLC = test system: A549 NSCLC
ACHN renal = test system: ACHN renal
BT-549 breast = test system: BT-549 breast
CAKI-1 renal = test system: CAKI-1 renal
CCRF-CEM leukemia = test system: CCRF-CEM leukemia
COLO 205 colon = test system: COLO 205 colon
DU-145 prostate = test system: DU-145 prostate
EKVX NSCLC = test system: EKVX NSCLC
HCC-2998 colon = test system: HCC-2998 colon
HCT-116 colon = test system: HCT-116 colon
HCT-15 colon = test system: HCT-15 colon
HOP-62 NSCLC = test system: HOP-62 NSCLC
HOP-92 NSCLC = test system: HOP-92 NSCLC
HS 578T breast = test system: HS 578T breast
HT29 colon = test system: HT29 colon
KM12 colon = test system: KM12 colon
LOX IMVI melanoma = test system: LOX IMVI melanoma
M14 melanoma = test system: M14 melanoma
MALME-3M melanoma = test system: MALME-3M melanoma
MCF7 breast = test system: MCF7 breast
MDA-MB-231 breast = test system: MDA-MB-231 breast
MDA-MB-435 = test system: MDA-MB-435
MDA-N = test system: MDA-N
NCI-H226 lung = test system: NCI-H226 lung
NCI-H23 lung = test system: NCI-H23 lung
NCI-H460 lung = test system: NCI-H460 lung
NCI-H522 lung = test system: NCI-H522 lung
NCI/ADR-RES ovarian = test system: NCI/ADR-RES ovarian
OVCAR-3 ovarian = test system: OVCAR-3 ovarian
OVCAR-4 ovarian = test system: OVCAR-4 ovarian
OVCAR-8 ovarian = test system: OVCAR-8 ovarian
PC-3 prostate = test system: PC-3 prostate
RPMI-8226 leukemia = test system: RPMI-8226 leukemia
RXF 393 renal = test system: RXF 393 renal
SF-268 CNS = test system: SF-268 CNS
SF-295 CNS = test system: SF-295 CNS
SF-539 CNS = test system: SF-539 CNS
SK-MEL-2 melanoma = test system: SK-MEL-2 melanoma
SK-MEL-28 melanoma = test system: SK-MEL-28 melanoma
SK-MEL-5 melanoma = test system: SK-MEL-5 melanoma
SK-OV-3 ovarian = test system: SK-OV-3 ovarian
SN12C renal = test system: SN12C renal
SNB-19 CNS = test system: SNB-19 CNS
SNB-75 CNS = test system: SNB-75 CNS
SW-620 colon = test system: SW-620 colon
T-47D breast = test system: T-47D breast
TK-10 renal = test system: TK-10 renal
U251 CNS = test system: U251 CNS
UACC-257 melanoma = test system: UACC-257 melanoma
UACC-62 melanoma = test system: UACC-62 melanoma
UO-31 renal = test system: UO-31 renal
HL-60(TB) leukemia = test system: HL-60(TB) leukemia
IGROV1 ovarian = test system: IGROV1 ovarian
K-562 leukemia = test system: K-562 leukemia
MOLT-4 leukemia = test system: MOLT-4 leukemia
OVCAR-5 ovarian = test system: OVCAR-5 ovarian

For `Cn1c(=O)c2ccccc2c2ccccc21`, the TGI (786-0 renal) was greater than 100 µM, the TGI (A498 renal) was 93.8 µM and the TGI (A549 NSCLC) was greater than 100 µM. It also gave a TGI (ACHN renal) greater than 100 µM, a TGI (BT-549 breast) greater than 100 µM and a TGI (CAKI-1 renal) of 89.8 µM. The TGI (CCRF-CEM leukemia) was greater than 100 µM, the TGI (COLO 205 colon) was greater than 100 µM and the TGI (DU-145 prostate) was greater than 100 µM. It also gave a TGI (EKVX NSCLC) of 63.1 µM, a TGI (HCC-2998 colon) greater than 100 µM and a TGI (HCT-116 colon) greater than 100 µM. It also gave a TGI (HCT-15 colon) greater than 100 µM, a TGI (HOP-62 NSCLC) greater than 100 µM and a TGI (HOP-92 NSCLC) greater than 100 µM. The TGI (HS 578T breast) was greater than 100 µM, the TGI (HT29 colon) was greater than 100 µM and the TGI (KM12 colon) was greater than 100 µM. It also gave a TGI (LOX IMVI melanoma) greater than 100 µM, a TGI (M14 melanoma) greater than 100 µM and a TGI (MALME-3M melanoma) greater than 100 µM. It also gave a TGI (MCF7 breast) greater than 100 µM, a TGI (MDA-MB-231 breast) greater than 100 µM and a TGI (MDA-MB-435) greater than 100 µM. It also gave a TGI (MDA-N) greater than 100 µM, a TGI (NCI-H226 lung) greater than 100 µM and a TGI (NCI-H23 lung) greater than 100 µM. The TGI (NCI-H460 lung) was greater than 100 µM, the TGI (NCI-H522 lung) was greater than 100 µM and the TGI (NCI/ADR-RES ovarian) was greater than 100 µM. The TGI (OVCAR-3 ovarian) was greater than 100 µM, the TGI (OVCAR-4 ovarian) was greater than 100 µM and the TGI (OVCAR-8 ovarian) was greater than 100 µM. The TGI (PC-3 prostate) was greater than 100 µM, the TGI (RPMI-8226 leukemia) was greater than 100 µM and the TGI (RXF 393 renal) was greater than 100 µM. For the same molecule, the TGI (SF-268 CNS) was greater than 100 µM, the TGI (SF-295 CNS) was greater than 100 µM and the TGI (SF-539 CNS) was greater than 100 µM. The TGI (SK-MEL-2 melanoma) was greater than 100 µM, the TGI (SK-MEL-28 melanoma) was greater than 100 µM and the TGI (SK-MEL-5 melanoma) was 95.7 µM. For the same molecule, the TGI (SK-OV-3 ovarian) was 94.1 µM, the TGI (SN12C renal) was greater than 100 µM and the TGI (SNB-19 CNS) was greater than 100 µM. For the same molecule, the TGI (SNB-75 CNS) was greater than 100 µM, the TGI (SW-620 colon) was greater than 100 µM and the TGI (T-47D breast) was greater than 100 µM. It also gave a TGI (TK-10 renal) greater than 100 µM, a TGI (U251 CNS) greater than 100 µM and a TGI (UACC-257 melanoma) greater than 100 µM. The TGI (UACC-62 melanoma) was greater than 100 µM and the TGI (UO-31 renal) was greater than 100 µM.
For `Clc1ccc2c(NCCNC3CCCCC3)ccnc2c1`, the TGI (786-0 renal) was 20.9 µM, the TGI (A498 renal) was 5.85 µM and the TGI (A549 NSCLC) was 31.2 µM. For the same molecule, the TGI (ACHN renal) was 25.3 µM, the TGI (BT-549 breast) was 23.3 µM and the TGI (CAKI-1 renal) was 24.3 µM. For the same molecule, the TGI (CCRF-CEM leukemia) was 9.77 µM, the TGI (COLO 205 colon) was 2.79 µM and the TGI (DU-145 prostate) was 36.7 µM. It also gave a TGI (EKVX NSCLC) of 15.7 µM, a TGI (HCT-116 colon) of 21.1 µM and a TGI (HCT-15 colon) of 20.4 µM. It also gave a TGI (HL-60(TB) leukemia) of 6.63 µM, a TGI (HOP-62 NSCLC) of 27.4 µM and a TGI (HOP-92 NSCLC) of 22.5 µM. For the same molecule, the TGI (HS 578T breast) was 8.15 µM, the TGI (HT29 colon) was 14.8 µM and the TGI (IGROV1 ovarian) was 27.8 µM. For the same molecule, the TGI (K-562 leukemia) was 6.13 µM, the TGI (KM12 colon) was 31 µM and the TGI (LOX IMVI melanoma) was 8.53 µM. It also gave a TGI (M14 melanoma) of 3.41 µM, a TGI (MALME-3M melanoma) of 3.64 µM and a TGI (MCF7 breast) of 15.9 µM. It also gave a TGI (MDA-MB-231 breast) of 23.8 µM, a TGI (MDA-MB-435) of 9.92 µM and a TGI (MDA-N) of 5.42 µM. It also gave a TGI (MOLT-4 leukemia) of 18.6 µM, a TGI (NCI-H226 lung) of 24.8 µM and a TGI (NCI-H23 lung) of 32.2 µM. The TGI (NCI-H522 lung) was 7.46 µM, the TGI (NCI/ADR-RES ovarian) was 33.7 µM and the TGI (OVCAR-3 ovarian) was 37.5 µM. For the same molecule, the TGI (OVCAR-4 ovarian) was 46.5 µM, the TGI (OVCAR-5 ovarian) was 30.5 µM and the TGI (OVCAR-8 ovarian) was 31.9 µM. For the same molecule, the TGI (PC-3 prostate) was 33.9 µM, the TGI (RPMI-8226 leukemia) was 17 µM and the TGI (RXF 393 renal) was 27.1 µM. The TGI (SF-268 CNS) was 22.8 µM, the TGI (SF-295 CNS) was 10.3 µM and the TGI (SK-MEL-2 melanoma) was 11 µM. The TGI (SK-MEL-28 melanoma) was 3.62 µM, the TGI (SK-MEL-5 melanoma) was 3.16 µM and the TGI (SK-OV-3 ovarian) was 37.8 µM. For the same molecule, the TGI (SN12C renal) was 33.8 µM, the TGI (SNB-19 CNS) was 35.5 µM and the TGI (SNB-75 CNS) was 23.4 µM. For the same molecule, the TGI (SW-620 colon) was 29.7 µM, the TGI (T-47D breast) was 64.6 µM and the TGI (TK-10 renal) was 7.15 µM. The TGI (U251 CNS) was 17.7 µM, the TGI (UACC-62 melanoma) was 15.8 µM and the TGI (UO-31 renal) was 11.2 µM.
`Cc1cc2nc(N3C(=O)/C(=C/c4ccc(Oc5ccccc5)cc4)N=C3c3ccccc3)sc2cc1C` showed a TGI (786-0 renal) greater than 100 µM, a TGI (A498 renal) greater than 100 µM and a TGI (A549 NSCLC) greater than 100 µM. It also gave a TGI (ACHN renal) greater than 100 µM, a TGI (BT-549 breast) greater than 100 µM and a TGI (CAKI-1 renal) greater than 100 µM. For the same molecule, the TGI (CCRF-CEM leukemia) was greater than 100 µM, the TGI (COLO 205 colon) was 47.6 µM and the TGI (DU-145 prostate) was greater than 100 µM. It also gave a TGI (EKVX NSCLC) greater than 100 µM, a TGI (HCC-2998 colon) greater than 100 µM and a TGI (HCT-116 colon) greater than 100 µM. The TGI (HCT-15 colon) was greater than 100 µM, the TGI (HL-60(TB) leukemia) was 63.8 µM and the TGI (HOP-62 NSCLC) was greater than 100 µM. The TGI (HOP-92 NSCLC) was greater than 100 µM, the TGI (HS 578T breast) was greater than 100 µM and the TGI (HT29 colon) was greater than 100 µM. The TGI (IGROV1 ovarian) was greater than 100 µM, the TGI (K-562 leukemia) was greater than 100 µM and the TGI (KM12 colon) was greater than 100 µM. The TGI (LOX IMVI melanoma) was greater than 100 µM, the TGI (M14 melanoma) was greater than 100 µM and the TGI (MALME-3M melanoma) was greater than 100 µM. It also gave a TGI (MCF7 breast) greater than 100 µM, a TGI (MDA-MB-231 breast) greater than 100 µM and a TGI (MDA-MB-435) of 83.4 µM. It also gave a TGI (MDA-N) greater than 100 µM, a TGI (MOLT-4 leukemia) greater than 100 µM and a TGI (NCI-H23 lung) greater than 100 µM. The TGI (NCI-H460 lung) was greater than 100 µM, the TGI (NCI-H522 lung) was 80.5 µM and the TGI (NCI/ADR-RES ovarian) was 91.6 µM. It also gave a TGI (OVCAR-3 ovarian) greater than 100 µM, a TGI (OVCAR-4 ovarian) greater than 100 µM and a TGI (OVCAR-5 ovarian) greater than 100 µM. The TGI (OVCAR-8 ovarian) was greater than 100 µM, the TGI (PC-3 prostate) was greater than 100 µM and the TGI (RPMI-8226 leukemia) was 86.8 µM. It also gave a TGI (RXF 393 renal) greater than 100 µM, a TGI (SF-268 CNS) greater than 100 µM and a TGI (SF-295 CNS) greater than 100 µM. For the same molecule, the TGI (SK-MEL-2 melanoma) was 71.6 µM, the TGI (SK-MEL-28 melanoma) was greater than 100 µM and the TGI (SK-MEL-5 melanoma) was greater than 100 µM. The TGI (SK-OV-3 ovarian) was greater than 100 µM, the TGI (SN12C renal) was greater than 100 µM and the TGI (SNB-19 CNS) was greater than 100 µM. The TGI (SNB-75 CNS) was greater than 100 µM, the TGI (SW-620 colon) was greater than 100 µM and the TGI (T-47D breast) was greater than 100 µM. The TGI (TK-10 renal) was greater than 100 µM, the TGI (U251 CNS) was greater than 100 µM and the TGI (UACC-257 melanoma) was greater than 100 µM. The TGI (UACC-62 melanoma) was greater than 100 µM and the TGI (UO-31 renal) was greater than 100 µM.
